{"source": "patent US12691107B2", "about": "“Methods for the treatment and prevention of lung infections caused by gram-positive bacteria, fungus, or virus by administration of tafenoquine” (priority 2020, dated 2026)", "key": {"P. aeruginosa": {"tested_on": "P. aeruginosa", "experiment": "Antibacterial MIC (broth microdilution)", "format": "cell-based", "conditions": "Pseudomonas aeruginosa"}, "A. baumannii": {"tested_on": "A. baumannii", "experiment": "Antibacterial MIC (broth microdilution)", "format": "cell-based", "conditions": "Acinetobacter baumannii"}, "K. pneumoniae": {"tested_on": "K. pneumoniae", "experiment": "Antibacterial MIC (broth microdilution)", "format": "cell-based", "conditions": "Klebsiella pneumoniae"}, "E. coli": {"tested_on": "E. coli", "experiment": "Antibacterial MIC (broth microdilution)", "format": "cell-based", "procedure": "Growth Medium—Cation adjusted Mueller-Hinton broth was used as the test medium. Broth for panel preparation was prepared from commercial dehydrated medium (Difco formulation, BD Diagnostics, catalog number 275730).\nDilution of Investigational Agents—Polystyrene test tubes were used to prepare the drug dilutions and sterile U-shaped 96-well polystyrene microtiter trays were used for performing the MIC assays. Stock solutions of the investigational agents were prepared at concentrations 100-times the highest concentration to be tested (6400-1.25 μg/ml) using dimethyl sulfoxide. Aliquots of the stock solutions were dispensed into polypropylene vials and stored at −20° C. Further dilutions (1:50) were made in the culture medium (cation-adjusted Mueller-Hinton medium).\nAfter the dilutions of the working 2-fold investigational antibacterial solutions were prepared, 50 μL of each concentration was transferred into rows of the first 10 wells of each 12-well column of the U-shaped disposable 96-well microtiter trays using a multichannel pipettor. The 11th well in each row served as the sterility control, and the 12th well contained only culture medium to serve as the growth control for each isolate. In like manner, the control drug for the organism being tested was prepared in a separate 96 well panel exactly as described above. A 50 μL volume of the standardized inoculum suspension of each test isolate was prepared in culture medium to directly inoculate each test well of the drug containing microtiter tray.\nInoculum Preparation—Colonies of each strain generated on sheep blood agar plates with overnight growth at 35° C. in ambient air were used to directly prepare a suspension equivalent in density to the 0.5 McFarland opacity standard. The exact turbidity of each suspension was determined using a desktop portable photometer. For panels containing 2× drug concentrations, a 1:100 dilution of the McFarland organism suspension was prepared in cation-adjusted Mueller-Hinton broth and 50 μL aliquots of each test (and control) strain was added to each well of the designated rows of the microtiter trays using a multichannel pipettor. The target inoculum concentration was 5×10^5 CFU/ml in each well.\nTrays were removed and each well were inspected for evidence of growth (turbidity). The MIC was defined as the lowest concentration of the investigational agent and the control drug that prevents visibly discernible growth in the test wells."}, "Scedosporium sp.": {"tested_on": "Scedosporium sp.", "experiment": "Antifungal MIC (RPMI-1640 microdilution)", "format": "cell-based", "conditions": "Scedosporium"}, "Histoplasma capsulatum": {"tested_on": "Histoplasma capsulatum", "experiment": "microbe, parasite or virus in culture", "format": "cell-based"}, "Emergomyces sp.": {"tested_on": "Emergomyces sp.", "experiment": "Antifungal MIC (RPMI-1640 microdilution)", "format": "cell-based"}, "C. krusei": {"tested_on": "C. krusei", "experiment": "Antifungal MIC (RPMI-1640 microdilution)", "format": "cell-based", "conditions": "Pichia kudriavzevii, ATCC6258, read-out: MIC 50% inhibition; isolate ATCC 6258"}, "Candida guilliermondii": {"tested_on": "Candida guilliermondii", "experiment": "Antifungal MIC (RPMI-1640 microdilution)", "format": "cell-based", "conditions": "Meyerozyma guilliermondii"}, "Candida glabrata": {"tested_on": "Candida glabrata", "experiment": "Antifungal MIC (RPMI-1640 microdilution)", "format": "cell-based", "conditions": "Nakaseomyces glabratus"}, "Candida auris": {"tested_on": "Candida auris", "experiment": "Antifungal MIC (RPMI-1640 microdilution)", "format": "cell-based", "conditions": "Candidozyma auris"}, "Candida albicans": {"tested_on": "Candida albicans", "experiment": "Antifungal MIC (RPMI-1640 microdilution)", "format": "cell-based"}, "Coccidioides sp.": {"tested_on": "Coccidioides sp.", "experiment": "microbe, parasite or virus in culture", "format": "cell-based"}, "Candida parapsilosis": {"tested_on": "Candida parapsilosis", "experiment": "Antifungal MIC (RPMI-1640 microdilution)", "format": "cell-based", "conditions": "for MIC50: Lodderomyces parapsilosis"}, "P. variotii": {"tested_on": "P. variotii", "experiment": "Antifungal MIC (RPMI-1640 microdilution)", "format": "cell-based", "conditions": "Paecilomyces variotii, read-out: MIC 50% inhibition; isolate MYA-3630"}, "Cryptococcus neoformans": {"tested_on": "Cryptococcus neoformans", "experiment": "Antifungal MIC (RPMI-1640 microdilution)", "format": "cell-based", "conditions": "Cryptococcus neoformans"}, "Blastomyces dermatitidis": {"tested_on": "Blastomyces dermatitidis", "experiment": "Antifungal MIC (RPMI-1640 microdilution)", "format": "cell-based"}, "SARS-CoV-2": {"tested_on": "SARS-CoV-2", "conditions": "cited from earlier work"}}, "note": "Like-named read-outs stand apart in the source and are kept apart here.", "data": [{"smiles": "C[C@@H](O)[C@H]1C(=O)N2C(C(=O)O)=C(S[C@@H]3CN[C@H](C(=O)N(C)C)C3)[C@H](C)[C@H]12", "note": "[Meropenem]", "values": [{"measurement": "MIC", "setting": "P. aeruginosa; ATCC27853, isolate ATCC 27853", "result": 0.25, "unit": "µg/mL"}, {"measurement": "MIC", "setting": "P. aeruginosa; isolate AR-230", "result": "> 64", "unit": "µg/mL"}, {"measurement": "MIC", "setting": "P. aeruginosa; isolate J4242", "result": 8, "unit": "µg/mL"}, {"measurement": "MIC", "setting": "A. baumannii; ATCC17978, isolate ATCC 17978", "result": "≤ 0.125", "unit": "µg/mL"}, {"measurement": "MIC", "setting": "A. baumannii; isolate AR-88", "result": "> 64", "unit": "µg/mL"}, {"measurement": "MIC", "setting": "A. baumannii; isolate AR-273", "result": 64, "unit": "µg/mL"}, {"measurement": "MIC", "setting": "K. pneumoniae; ATCC70063, isolate ATCC 70063", "result": "≤ 0.125", "unit": "µg/mL"}, {"measurement": "MIC", "setting": "K. pneumoniae; isolate AR-97", "result": 64, "unit": "µg/mL"}, {"measurement": "MIC", "setting": "K. pneumoniae; isolate AR-113", "result": "> 64", "unit": "µg/mL"}, {"measurement": "MIC", "setting": "E. coli; Escherichia coli, ATCC25922, isolate ATCC 25922, read-out: MIC", "result": "≤ 0.125", "unit": "µg/mL"}, {"measurement": "MIC", "setting": "E. coli; Escherichia coli, isolate J4243 (MO72), read-out: MIC", "result": "≤ 0.125", "unit": "µg/mL"}, {"measurement": "MIC", "setting": "E. coli; isolate J4244 (JJ1886)", "result": "≤0.125", "unit": "µg/mL"}]}, {"smiles": "OC(Cn1cncn1)(Cn1cncn1)c1ccc(F)cc1F", "note": "[Fluconazole]", "values": [{"measurement": "MIC50", "setting": "Scedosporium sp.; read-out: MIC 50% inhibition, isolate Scedo1", "result": 0.125, "unit": "µg/mL"}, {"measurement": "MIC50", "setting": "Scedosporium sp.; read-out: MIC 50% inhibition, isolate 00-180", "result": 0.125, "unit": "µg/mL"}, {"measurement": "MIC50", "setting": "Scedosporium sp.; read-out: MIC 50% inhibition, isolate LPI", "result": 4, "unit": "µg/mL"}, {"measurement": "MIC50", "setting": "Histoplasma capsulatum; read-out: MIC 50% inhibition, isolate HC1", "result": 0.125, "unit": "µg/mL"}, {"measurement": "MIC50", "setting": "Histoplasma capsulatum; read-out: MIC 50% inhibition, isolate HC2", "result": "≤ 0.03", "unit": "µg/mL"}, {"measurement": "MIC50", "setting": "Histoplasma capsulatum; read-out: MIC 50% inhibition, isolate HC3", "result": "≤ 0.03", "unit": "µg/mL"}, {"measurement": "MIC50", "setting": "Emergomyces sp.; read-out: MIC 50% inhibition, isolate Emerg2", "result": "≤ 0.03", "unit": "µg/mL"}, {"measurement": "MIC50", "setting": "Emergomyces sp.; read-out: MIC 50% inhibition, isolate Emerg3", "result": "≤ 0.03", "unit": "µg/mL"}, {"measurement": "MIC50", "setting": "C. krusei", "result": 32, "unit": "µg/mL"}, {"measurement": "MIC50", "setting": "Candida guilliermondii; read-out: MIC 50% inhibition, isolate Cgui1", "result": 1, "unit": "µg/mL"}, {"measurement": "MIC50", "setting": "Candida guilliermondii; read-out: MIC 50% inhibition, isolate Cgui2", "result": 2, "unit": "µg/mL"}, {"measurement": "MIC50", "setting": "Candida guilliermondii; read-out: MIC 50% inhibition, isolate Cgui3", "result": 2, "unit": "µg/mL"}, {"measurement": "MIC50", "setting": "Candida glabrata; read-out: MIC 50% inhibition, isolate 05-62", "result": "> 64", "unit": "µg/mL"}, {"measurement": "MIC50", "setting": "Candida glabrata; read-out: MIC 50% inhibition, isolate 05-761", "result": 8, "unit": "µg/mL"}, {"measurement": "MIC50", "setting": "Candida glabrata; read-out: MIC 50% inhibition, isolate CG3", "result": 32, "unit": "µg/mL"}, {"measurement": "MIC50", "setting": "Candida auris; read-out: MIC 50% inhibition, isolate DI17-46", "result": "> 64", "unit": "µg/mL"}, {"measurement": "MIC50", "setting": "Candida auris; read-out: MIC 50% inhibition, isolate DI17-47", "result": "> 64", "unit": "µg/mL"}, {"measurement": "MIC50", "setting": "Candida auris; read-out: MIC 50% inhibition, isolate DI17-48", "result": 2, "unit": "µg/mL"}, {"measurement": "MIC50", "setting": "Candida albicans; ATCC90028, read-out: MIC 50% inhibition, isolate ATCC 90028", "result": 0.25, "unit": "µg/mL"}, {"measurement": "MIC50", "setting": "Candida albicans; read-out: MIC 50% inhibition, isolate CA3", "result": "> 64", "unit": "µg/mL"}, {"measurement": "MIC50", "setting": "Candida albicans; read-out: MIC 50% inhibition, isolate SC5314", "result": 0.5, "unit": "µg/mL"}, {"measurement": "MIC50", "setting": "Coccidioides sp.; read-out: MIC 50% inhibition, isolate Cocci1", "result": 16, "unit": "µg/mL"}, {"measurement": "MIC50", "setting": "Coccidioides sp.; read-out: MIC 50% inhibition, isolate Cocci2", "result": 32, "unit": "µg/mL"}, {"measurement": "MIC50", "setting": "Coccidioides sp.; read-out: MIC 50% inhibition, isolate D117-143", "result": 4, "unit": "µg/mL"}, {"measurement": "MIC50", "setting": "Candida parapsilosis; ATCC22019, read-out: MIC 50% inhibition, isolate ATCC 22019", "result": 1, "unit": "µg/mL"}, {"measurement": "MIC50", "setting": "Candida parapsilosis; read-out: MIC 50% inhibition, isolate CP1", "result": 0.5, "unit": "µg/mL"}, {"measurement": "MIC 50% inhibition", "setting": "Candida parapsilosis; isolate CP2", "result": 0.5, "unit": "µg/mL"}, {"measurement": "MIC 50% inhibition", "setting": "Candida parapsilosis; isolate CP3", "result": 0.5, "unit": "µg/mL"}, {"measurement": "MIC50", "setting": "P. variotii", "result": 8, "unit": "µg/mL"}, {"measurement": "MIC50", "setting": "Cryptococcus neoformans; read-out: MIC 50% inhibition, isolate CN3", "result": 64, "unit": "µg/mL"}, {"measurement": "MIC50", "setting": "Cryptococcus neoformans; read-out: MIC 50% inhibition, isolate H99", "result": 16, "unit": "µg/mL"}, {"measurement": "MIC50", "setting": "Cryptococcus neoformans; read-out: MIC 50% inhibition, isolate USC1597", "result": 4, "unit": "µg/mL"}, {"measurement": "MIC50", "setting": "Blastomyces dermatitidis; read-out: MIC 50% inhibition, isolate Blasto1", "result": "≤ 0.03", "unit": "µg/mL"}, {"measurement": "MIC50", "setting": "Blastomyces dermatitidis; read-out: MIC 50% inhibition, isolate Blasto2", "result": "≤ 0.03", "unit": "µg/mL"}, {"measurement": "MIC50", "setting": "Blastomyces dermatitidis; read-out: MIC 50% inhibition, isolate Blasto3", "result": "≤ 0.03", "unit": "µg/mL"}]}, {"smiles": "CCN(CC)CCCC(C)Nc1ccnc2cc(Cl)ccc12", "note": "(stereo not drawn) [chloroquine]", "values": [{"measurement": "fold less potent in CALU-3 than in VERO cells", "setting": "SARS-CoV-2", "result": 10, "unit": "fold"}]}]}
